The values below come from patent publication US10286000B2, “Retinoid X receptor-gamma agonists and retinoid X receptor-alpha antagonists for treatment of cancer” (St. Jude Children's Research Hospital, Inc., priority 2013, dated 2019).

For assay [1], the system named is HCT116, HT29, and CAL27 cells. Put plainly: wound-healing assay. Format: cell-based, human. Particulars: HCT116, HT29, CAL27. As to the method:
(§1) The number of cells that invaded the ECM was determined after 24 h. Data are expressed as percentage change in tumor invasion relative to that of DMSO-treated cells (n=3). (D) Wound healing by DMSO- and SPIR-treated HCT116, HT29, and CAL27 cells was compared. Data are calculated as the percentage change in distance of migration relative to that of DMSO-treated cells (n=3). […] Tumor xenografts and lung metastases were detected by bioluminescence imaging on day 25. Data are shown as the average total flux (photons/second)±standard deviation (n=8). (F) The lung metastases (arrows) were confirmed by examining lung tissue sections. * P≤0.05, ** P<0.01, *** P<0.005, **** P<0.0001.
Confluent cell layers of CAL27 and HT29 cells with a 500 μm±50 μm gap were formed by using Ibidi culture inserts (RPI Corp.). Gap distances were measured at various times using a Nikon Eclipse Ti inverted microscope and NIS-Elements software (Nikon).

The subject of assay [2] is TIMP2 and TIMP3. Kind of assay: TIMP2 and TIMP3 ELISA. Format: cell-based, human. Particulars: HCT116, 56 μM 3 days.
Assay [3] has as its system MMP-1, 7, 10, 12, and 13 in CAL27 cells. Put plainly: RT-qPCR of MMP mRNA. It is filed as cell-based, human. The conditions noted are these: 3 days. From the text: Data were normalized to GAPDH mRNA levels and presented as fold change relative to the mRNA expression in DMSO treated cells (n=3). * P<0.005, ** P<0.001.
Another assay relates to HDAC. Put plainly: HDAC activity and HDAC3 mRNA after SPIR treatment. Format: cell-based, human.
Assay [4] concerns TIMP2 and TIMP3. Put plainly: qRT-PCR of TIMP2 and TIMP3 mRNA. The conditions noted are these: CAL27 and all the colon cancer cell lines, 56 μM 3 days. Format: cell-based, human. As to the method: as §1
For qRT-PCR, total RNA was extracted from untreated or drug-treated tumor cells by using the RNA Clean & Concentrator (Zymo Research). All cDNA was generated by using the SuperScript VILO cDNA Synthesis kit (Life Technologies) and diluted 10-fold for analysis using the 7900HT Fast Real-time PCR System (Applied Biosystems). The data were calculated as the CT of target genes normalized to the CT of GAPDH of each sample. Primer sequences of the target genes were: MICA-F: 5′-[…]-3′, (SEQ ID NO: 14) MICA-R: 5′-[…]-[…]-3′, (SEQ ID NO: 15) MICB-F: 5′-[…]-3′, (SEQ ID NO: 16) MICB-R:5′-CCCTC-[…]-3′, (SEQ ID NO: 17), ULBP1-F:5′-[…]-3′, (SEQ ID NO: 18), ULBP1-R:5′-[…]-3′, (SEQ ID NO: 19), ULBP2-F:5′-[…]-3′, (SEQ ID NO: 20), ULBP2-R:5′-[…]-3′, (SEQ ID NO: 21), ULBP3-F:5′-[…]-TTCG-3′, (SEQ ID NO: 22), ULBP3-R:[…]-3′, (SEQ ID NO: 23), TIMP2-F:5′-[…]-[…]-3′, (SEQ ID NO: 24), TIMP2-R:[…]-3′, (SEQ ID NO: 25), TIMP3-F:5′-[…]-3′, (SEQ ID NO: 26), TIMP3-R:5′-[…]-[…]-3′ (SEQ ID NO: 27), GAPDH-F: 5′-[…]3′ (SEQ ID NO: 28), GAPDH-R: 5′-G-[…]-3′ (SEQ ID NO: 29). […] Differentially expressed transcripts were analyzed by ANOVA on Spotfire program.

A further assay has as its system HCT116 cells. Kind of assay: cell-cycle analysis (propidium iodide, EdU). Format: cell-based, human. The conditions noted are these: HCT116, 24 h.
Assay [5] relates to spontaneous intestinal polyps. Put plainly: C57BL/6J-ApcMin/J mouse model. Format: in vivo, C57BL/6J-Apc^Min/J mice. As to the method: The number of spontaneous intestinal polyps (arrows) was counted and compared between the two groups of mice at the end of the 3 month period. (B) The difference in adenoma growth (arrows) between the PBS- and SPIR-treated mouse groups was confirmed in intestine tissue sections. […] Total RNA were collected for cDNA preparation and the expressions of the mouse NKG2D ligands Raet1 family were analyzed by qRT-PCR. […] The number of spontaneous intestinal polyps (arrows) was counted and compared between the two groups of mice. * P≤0.05, ** P≤0.01, *** P<0.005.
By examining the intestines collected from different age groups of C57BL/6J-APC^Min/J mice (n=2-3 per group), it was discovered that none of the 8-week-old mice developed intestinal polyps. The mice started to develop polyps when they were 10 to 12-week-old and there were 15-25 intestinal adenomas established in the intestinal tracts of all the 4-month-old mice. Most of the mice died at 5 to 6 months with 25-30 adenomas in their intestines. […] The number of intestinal polyps was counted, and the intestine was fixed in 10% neutral buffered formalin, paraffin embedded, sectioned, and stained with hematoxylin and eosin. Intestine sections at 100-μm intervals were collected for the observation of neoplasia without knowledge of treatment assignment.

The test system of assay [6] is soluble ULBP2 from HCT116 cells. Kind of assay: ULBP2 ELISA (shedding to culture supernatant). Particulars: 56 μM, 3 days. It is filed as cell-based, human. As to the method:
ULBP2 shed from cell surface to the culture supernatant was detected by ELISA method as described before (Waldhauer & Steinle. 2006. Cancer research 66:2520-2526). 100 μl (triplicate) of cultured supernatant was added into a 96-well plate pre-coated with 1 μg/ml of mouse anti-ULBP2 (BUMO1) and incubated at 4° C. overnight. The plate was washed and then incubated with mouse anti-ULBP2 (IgG2a, 100 μl/well at 1 μg/ml) for 1 h followed by incubation with HRP-conjugated goat anti-mouse IgG2a for 1 h at room temperature. TMB substrate was added and the plate was read using Victor^2 plate reader (Perkin Elmer).

`CC(=O)S[C@@H]1CC2=CC(=O)CC[C@]2(C)[C@H]2CC[C@@]3(C)[C@@H](CC[C@@]34CCC(=O)O4)[C@H]12` [SPIR, spironolactone]: the cell migration result in assay [1] is recorded as “delayed cell migration”. Further, in the assay with TIMP2 and TIMP3 [2], the “TIMP2 and TIMP3 in culture supernatant” value was “corresponding increases”. Further, the “expression of Matrix Metalloproteinases (MMP-1, MMP-7, MMP-10, MMP-12, MMP-13)” value in assay [3] is “downregulates expression”. For the same compound, the HDAC activities entry with HDAC (SW480 or HCT116 cells) is on record as “did not inhibit HDAC activities”. Moreover, the “mRNA expression of HDAC3” value in the assay with HDAC (after SPIR treatment) is on record as “no significant change”. Moreover, the “mRNA expression of TIMP2 and TIMP3” value with TIMP2 and TIMP3 [4] is “significantly upregulated”. In addition, in the assay with HCT116 cells, the cell cycle result is recorded as “S-phase cell-cycle arrest”. Further, the “number of polyps (therapy)” value in assay [5] (4-month-old mice, twice a week for 3 weeks, vs untreated) is reported as “significant reduction of the number of polyps”. Further, the “number of polyps formed (prevention)” value in assay [5] (8-week-old mice, twice a week for 3 months, vs untreated) is “significantly less”. The “expression of Raet1 ligand in the polyps” value in assay [5] (qRT-PCR) is recorded as “significantly increased the expression of the Raet1 ligand”. For the same compound, in assay [6], the “amount of soluble ULBP2” value is on record as “did not reduce but rather moderately increased”.
